Each structure is given as a SMILES string.

The target in assay [1] is T1, SOS1 (Homo sapiens, UniProt Q07889).
T1 sequence (Q07889 1-1333): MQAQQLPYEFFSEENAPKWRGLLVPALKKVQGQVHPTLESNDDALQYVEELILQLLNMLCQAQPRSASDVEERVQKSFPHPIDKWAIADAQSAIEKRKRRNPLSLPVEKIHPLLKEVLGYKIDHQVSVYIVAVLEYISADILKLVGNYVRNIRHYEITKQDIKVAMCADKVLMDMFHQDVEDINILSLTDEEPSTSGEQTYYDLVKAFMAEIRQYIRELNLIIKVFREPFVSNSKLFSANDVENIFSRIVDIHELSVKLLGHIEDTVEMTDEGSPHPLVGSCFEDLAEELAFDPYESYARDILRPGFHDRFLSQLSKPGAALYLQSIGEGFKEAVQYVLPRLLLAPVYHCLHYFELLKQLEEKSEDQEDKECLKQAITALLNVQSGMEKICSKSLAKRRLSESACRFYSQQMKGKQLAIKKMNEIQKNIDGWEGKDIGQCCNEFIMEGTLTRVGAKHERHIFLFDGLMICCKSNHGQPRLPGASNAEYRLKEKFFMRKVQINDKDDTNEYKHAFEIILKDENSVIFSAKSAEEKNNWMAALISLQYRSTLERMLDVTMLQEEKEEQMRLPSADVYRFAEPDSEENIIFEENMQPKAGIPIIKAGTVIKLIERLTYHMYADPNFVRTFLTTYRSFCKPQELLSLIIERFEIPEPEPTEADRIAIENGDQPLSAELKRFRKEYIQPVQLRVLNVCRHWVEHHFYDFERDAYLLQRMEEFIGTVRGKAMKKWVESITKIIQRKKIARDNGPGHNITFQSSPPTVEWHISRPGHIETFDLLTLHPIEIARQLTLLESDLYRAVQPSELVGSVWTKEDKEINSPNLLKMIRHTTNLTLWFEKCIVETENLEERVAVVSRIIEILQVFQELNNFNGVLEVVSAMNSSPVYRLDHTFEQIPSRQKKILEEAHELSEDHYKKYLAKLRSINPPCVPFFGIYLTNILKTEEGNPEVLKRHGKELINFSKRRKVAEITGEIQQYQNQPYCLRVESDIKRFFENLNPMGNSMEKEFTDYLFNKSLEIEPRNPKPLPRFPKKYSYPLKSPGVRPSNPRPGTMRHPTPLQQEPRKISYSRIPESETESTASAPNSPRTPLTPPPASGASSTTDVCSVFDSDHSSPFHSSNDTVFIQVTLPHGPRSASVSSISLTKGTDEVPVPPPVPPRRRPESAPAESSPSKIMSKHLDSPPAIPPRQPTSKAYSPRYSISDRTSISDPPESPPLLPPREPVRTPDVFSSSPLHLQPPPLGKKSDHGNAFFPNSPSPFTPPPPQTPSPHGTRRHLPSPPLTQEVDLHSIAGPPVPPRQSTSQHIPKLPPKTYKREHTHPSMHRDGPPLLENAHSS
The experiment in a line: SOS1 degradation by immunoblot in colorectal cancer cell lines. It counts as cell-based. On the set-up: endogenous in cells; host or cells: SW620, HCT116, C2BB, SW1417. As to the method:
SW620, HCT116, C2BB, and SW1417 were purchased from the American Type Culture Collection. […] They were incubated under a 5% (v/v) CO2 atmosphere at 37° C.
Cells were plated in a 100 mm dish for incubation overnight before harvest for immunoblot. For drug treatment, cell confluency was checked prior to proceeding with the treatment. […] Approximately 40 μg protein samples were loaded into each well and separated by SDS-PAGE gel. After protein transfer onto nitrocellulose membranes, 5% skim milk in TBST was used to block the membranes for 1 hour at room temperature prior to incubation with primary antibodies overnight at 4° C. At the completion, a horseradish peroxidase-conjugated secondary antibody was applied at room temperature for 1 hour. The bands were visualized using Western Lightning Plus-ECL (PerkinElmer).

Assay [2] has as its target T1, SOS1. The experiment in a line: Immunohistochemical staining of SOS1 on CRC patient-derived organoids. It counts as cell-based. Also noted: endogenous in cells; host or cells: CRC patient-derived organoids MCC19990-002, MCC19990-010, MCC19990-013. Conditions: MCC19990-002, MCC19990-010, MCC19990-013 PDOs, 1 μM, 24 hours, vs DMSO. As to the method:
To one or two confluent wells of organoids was added 1:5 diluted 500 μL of 5 units/mL dispase in HBSS (StemCell: 07913) and incubated at 37° C. in 5% CO2 atmosphere. Organoids were harvested and transferred to a 1.5 mL Eppendorf tube. The pellet was collected after centrifugation at 1500 rpm for 6 min, and washed with 1×PBS. The pellet was resuspended in 1 mL of 4% PFA and incubated at 4° C. overnight. The pellet was resuspended in 100 μL of 37° C. warmed histogel, centrifuged at 1000 rpm for 30 seconds to settle the organoids. The gel was allowed to polymerize at 4° C. for 10 minutes and then the plug was transferred to a 5 mL tube containing 2 mL 70% ethanol, and sent to the histology lab. Organoids were paraffin-embedded and subjected to serial sections for hematoxylin and eosin staining and immunohistochemistry following a common procedure at the histology lab. The slides/sections were cut at 4 micron thickness using a Leica RM2245 microtome. Charged slides were used.
Immunohistochemical staining of SOS1 on organoids: Slides were stained using a Ventana Discovery Ultra automated system (Ventana Medical Systems, Tucson, AZ) as per manufacturer's protocol with proprietary reagents. Briefly, slides were deparaffinized on the automated system with Discovery Wash Solution (Ventana). Heat-induced antigen retrieval method was used in Cell Conditioning 1 Mild (Ventana). […]

As to `COc1cc2c(N[C@H](C)c3cc(N)cc(C(F)(F)F)c3)nc(C)nc2cc1OCC(=O)Nc1cccc2c1CN(C1CCC(=O)NC1=O)C2=O` (stereo partly drawn) [P7, 2-((4-(((R)-1-(3-amino-S-(trifluoromethyl)phenyl)ethyl)amino)-6-methoxy-2-methylquinazolin-7-yl)oxy)-N-(2-(2,6-dioxopiperidin-3-yl)-1-oxoisoindolin-4-yl)acetamide], the “SOS1 degradation in other CRC cell lines” value at SOS1 [1] (HCT116, C2BB and SW1417 cells, different concentrations, 24 hours) was “concentration-dependent”. In addition, the “SOS1 degradation after cycloheximide pretreatment” value on SOS1 [1] (SW620 cells pre-treated with cycloheximide 100 μg/mL for 1 hour, then 1 μM P7, starting at 3 hours and sustained) is recorded as “more than 75%”. For the same compound, the “SOS1 degradation by P7 after pretreatment with competitors/pathway inhibitors” value on SOS1 [1] (SW620 cells pretreated 1 hour with BI3406 10 μM, lenalidomide 10 μM, MLN4924 0.5 μM or MG132, then P7 1 μM 24 h) was “lack of significant SOS1 degradation”. Further, the SOS1 degradation at SOS1 [1] (SW620 cells, 1 μM, 6 hours, immunoblot) was found to be 64%; on SOS1 [1] (SW620 cells, 1 μM, 48 hours, immunoblot) it was 92%. The “Time-dependent SOS1 degradation” value on SOS1 [1] (SW620 cells, 1 μM, different time points) is “time-dependent”. Further, the “SOS1 degradation compared to SOS1 inhibitor BI3406 and siRNA of SOS1” value on SOS1 [1] (SW620 cells, 6 hours, immunoblot) was “comparable with that by genetic knockdown”. At SOS1 [1] (maximal degradation reported, CRC cell lines and PDOs), the “SOS1 degradation (up to)” value is “up to 92%”. Also, the “SOS1 expression by IHC (SOS1 degradation)” value at SOS1 [2] was “significant SOS1 degradation at varying degrees”.

(Values after patent US20260085058A1, “DEGRADERS OF SON OF SEVENLESS HOMOLOG 1” (H. LEE MOFFITT CANCER CENTER AND RESEARCH INSTITUTE, INC., priority 2022, published 2026).)
